Data reported in PubChem BioAssay (NCI).
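Compound exposure: 48 hours, 5 concentrations, 96-well plates. Definition used: TGI = concentration required for complete inhibition of growth.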

Legend:
Assay in all cases: DTP human tumour cell line panel, 48 h
786-0 renal = tested on: 786-0 renal
A498 renal = tested on: A498 renal
A549 NSCLC = tested on: A549 NSCLC
ACHN renal = tested on: ACHN renal
CAKI-1 renal = tested on: CAKI-1 renal
CCRF-CEM leukemia = tested on: CCRF-CEM leukemia
DLD-1 colon = tested on: DLD-1 colon
DMS 273 small cell lung = tested on: DMS 273 small cell lung
EKVX NSCLC = tested on: EKVX NSCLC
HCC-2998 colon = tested on: HCC-2998 colon
HCT-116 colon = tested on: HCT-116 colon
HCT-15 colon = tested on: HCT-15 colon
HL-60(TB) leukemia = tested on: HL-60(TB) leukemia
HOP-62 NSCLC = tested on: HOP-62 NSCLC
HT29 colon = tested on: HT29 colon
IGROV1 ovarian = tested on: IGROV1 ovarian
K-562 leukemia = tested on: K-562 leukemia
KM12 colon = tested on: KM12 colon
KM20L2 colon = tested on: KM20L2 colon
LXFL 529 NSCLC = tested on: LXFL 529 NSCLC
M14 melanoma = tested on: M14 melanoma
M19-MEL melanoma = tested on: M19-MEL melanoma
MALME-3M melanoma = tested on: MALME-3M melanoma
MOLT-4 leukemia = tested on: MOLT-4 leukemia
NCI-H23 lung = tested on: NCI-H23 lung
NCI-H460 lung = tested on: NCI-H460 lung
OVCAR-3 ovarian = tested on: OVCAR-3 ovarian
OVCAR-4 ovarian = tested on: OVCAR-4 ovarian
OVCAR-5 ovarian = tested on: OVCAR-5 ovarian
OVCAR-8 ovarian = tested on: OVCAR-8 ovarian
RPMI-8226 leukemia = tested on: RPMI-8226 leukemia
RXF 393 renal = tested on: RXF 393 renal
RXF-631 renal = tested on: RXF-631 renal
SF-295 CNS = tested on: SF-295 CNS
SF-539 CNS = tested on: SF-539 CNS
SK-MEL-2 melanoma = tested on: SK-MEL-2 melanoma
SK-MEL-28 melanoma = tested on: SK-MEL-28 melanoma
SK-MEL-5 melanoma = tested on: SK-MEL-5 melanoma
SK-OV-3 ovarian = tested on: SK-OV-3 ovarian
SNB-75 CNS = tested on: SNB-75 CNS
SNB-78 CNS = tested on: SNB-78 CNS
SW-620 colon = tested on: SW-620 colon
TK-10 renal = tested on: TK-10 renal
U251 CNS = tested on: U251 CNS
UACC-257 melanoma = tested on: UACC-257 melanoma
UACC-62 melanoma = tested on: UACC-62 melanoma
UO-31 renal = tested on: UO-31 renal
XF 498 CNS = tested on: XF 498 CNS

Measured: TGI

Cc1ccc(S(=O)(=O)c2ccc(N)cc2)cc1
> 100 µM: all assays above
